Results on 65 compounds are retold here after PubChem BioAssay AID743417 (Broad Institute, 2014).

Structures are written as SMILES. Results filed as inconclusive are left out. The source made the active and inactive calls.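 The calls were made as follows: active = compounds lowering the luciferase signal with a fitted half-maximal dose at most twice their top valid dose (cut at about 30 µM in these data); inconclusive = flat fits with moderate signal loss, or poor fits; inactive = the rest.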 A value given as a limit tells only on which side of the number the result lay.

The assay relates to Clone20 osteoblast Shn3 3'UTR firefly luciferase, 24 h. Description: Schnurri-3 3'UTR-luciferase signal suppressors – cell-based, Clone20 osteoblasts, luminescence, dry powder, set 2, dose response (AID 743417).
As for `Cc1cccc(-c2noc(CN(C(=O)C(c3ccccc3)c3ccccc3)C(C)C)n2)c1`, the concentration at half-maximal activity (AC50) was 6.27 µM.

For the compound `CN(C)c1ccc(/C=C/c2ccc3c4ccccc4ccc3[n+]2-c2ccccc2)cc1`, the AC50 was less than 0.26 µM.

For the compound `CC(=O)NC(c1ccc(Cl)cc1Cl)c1ccc2cccnc2c1O` (stereo not given), the AC50 is 0.465 µM.

Turning to `CC1=NOC(=O)/C1=C\c1ccc(-c2ccccc2Br)o1`, the AC50 was 6.48 µM.

Take `COc1ccc(NS(=O)(=O)c2ccc(OC)c(N(C)S(=O)(=O)c3ccc(Cl)cc3)c2)cc1`: the AC50 is 2.92 µM.

On to `CCCC(=O)NC(=S)Nc1ccc(N2CCN(C(=O)c3cccs3)CC2)cc1`, for which the AC50 is 10.1 µM.

For `CCOc1ccc(CN(C)c2ccc(S(=O)(=O)N3CCN(C)CC3)cc2[N+](=O)[O-])cc1OC`, the AC50 is 3.38 µM.

On to `O=C(NNC(=O)C1CCN(S(=O)(=O)c2ccc(Cl)cc2)CC1)c1ccccc1O`, for which the half-maximal activity concentration (AC50) is 18.5 µM.

In the case of `CN(CCOc1ccc(Cl)cc1)C(=O)c1cccc(S(=O)(=O)N2CCN(Cc3ccccc3)CC2)c1`, the AC50 was 2.29 µM.

In the case of `N#CC(c1cccc(Cl)c1)c1ccc2c(C(F)(F)F)cc(C(F)(F)F)nc2n1` (stereo not given), the AC50 was 0.689 µM.

Consider `CC(C)NC(=O)C1CCN(C(=O)c2cc3sccc3n2Cc2ccc(F)cc2)CC1`, for which the concentration at half-maximal activity (AC50) was 5.05 µM.

In the case of `Fc1ccc(-n2nnnc2-c2cnc(-c3cccs3)nc2C(F)(F)F)cc1`, the AC50 is 4.44 µM.

Consider `CCOC(=O)/C=C/C(=O)OCC(=O)NC(c1ccccc1)c1ccccc1`, for which the AC50 was 5.14 µM.

As for `CCOC(=O)c1c(-c2ccccc2)oc2cc(CN(C)C)c(O)c(CN(C)C)c12`, the AC50 was 7.81 µM.

`O=C(NNC(=O)c1cccc(S(=O)(=O)N2CCc3ccccc32)c1)c1ccccc1`: the AC50 is 1.52 µM.

Turning to `CC(=O)c1cn(Cc2ccccc2F)c2ccccc12`, the AC50 was 2.96 µM.

Consider `CC(=O)c1ccc(N2CCN(S(=O)(=O)c3ccc(-c4cnc(C5CC5)o4)cc3)CC2)cc1`, for which the AC50 is 5.95 µM.

Take `CN1CCN(S(=O)(=O)c2ccc(N(C)Cc3ccc(C(F)(F)F)cc3)c([N+](=O)[O-])c2)CC1`: the AC50 was 6.3 µM.

Take `Cc1cc(S(=O)(=O)NCc2ccncc2)c(C)cc1Br`: the AC50 was 1.23 µM.

In the case of `CCn1c(C)nc2cc(-c3nnc(-c4c(-c5ccccc5)noc4C)o3)ccc21`, the AC50 is 5.82 µM.

As for `CCOC(=O)C1(Cc2ccc(Cl)cc2)CCN(C(C)Cc2ccc(O)c(OC)c2)CC1` (stereo not given), the AC50 is 1.33 µM.

In the case of `CCCC(=O)NC(c1ccc(OC)cc1)c1ccc2cccnc2c1O` (stereo not given), the AC50 was 1.18 µM.

On to `Cc1ccc(C(=O)Nc2cccc3[nH]c(C(F)(F)F)nc23)cc1`, for which the AC50 was 3.93 µM.

For the compound `COC(=O)C1=C(C(=O)OC)[C@@H]2N(Cc3ccccc3)c3ccccc3[C@@]23C[C@@H](C(=O)OC)N(C(=O)c2ccc(Br)cc2)C3=N1`, the AC50 was 8.52 µM.

For the compound `Cc1nc(-n2[nH]c3c(c2=O)CCCC3)[nH]c(=O)c1Cc1ccccc1`, the AC50 was 4.44 µM.

Consider `CS(=O)(=O)c1ncc(Cl)c(C(=O)Nc2ccc(N3CCOCC3)cc2)n1`, for which the AC50 is 1.21 µM.

Turning to `COC(=O)C1=C(c2ccc3ccccc3c2)C[C@@H]2CC[C@H]1N2C(=O)NCC1CC1`, the AC50 is 6.86 µM.

Regarding `COc1ccc(CCNc2ncnc3sccc23)cc1OC`, the AC50 is less than 0.26 µM.

Turning to `CCOc1cc(CNCCc2ccc(S(N)(=O)=O)cc2)ccc1OCc1ccc(Cl)cc1`, the AC50 is 3.87 µM.

Regarding `C=C1CC(Cn2cc(Br)c(=O)[nH]c2=O)(c2ccc(-c3ccccc3)cc2)OC1=O` (stereo not given), the AC50 is 2.67 µM.

For `C[C@@H]1COC(=O)[C@@H](NC(=O)OCC2c3ccccc3-c3ccccc32)C/C=C\C[C@@H](CC(=O)N(CCO)Cc2ccccc2)C(=O)N1`, the AC50 was 1.89 µM.

With `CNC[C@H](CC1CCCCC1)NC[C@H](Cc1ccccc1)NCCC12CC3CC(CC(C3)C1)C2`, the AC50 was 5.51 µM.

As to `CN(CC(=O)Nc1ccccc1Cl)C(=O)c1cccc(S(=O)(=O)N2CCN(Cc3ccccc3)CC2)c1`, the AC50 was 3.47 µM.

On to `Cc1ccccc1C(=O)N1CCN(c2ccc(NC(=O)c3ccc4c(c3)OCCO4)cc2)CC1`, for which the half-maximal activity concentration (AC50) is 2.17 µM.

For `Cc1cccc(/C=C(\c2nc3ccccc3[nH]2)S(=O)(=O)c2ccccc2)c1`, the half-maximal activity concentration (AC50) is 4.5 µM.

`O=C(c1ccccc1)c1ccccc1N1C(=O)C=CC1=O`: the AC50 is 16.7 µM.

With `O=C(Nc1ccc(Cl)c(Cl)c1)Nc1ccc(N2CCCC2)c(S(=O)(=O)Nc2ccccc2Cl)c1`, the AC50 is 5.13 µM.

Regarding `CCc1c(C)nc2ncnn2c1NCCc1ccc(Cl)cc1`, the AC50 was 2.17 µM.

For `CCOC(=O)N1CCC(NC(=O)C2CCCN(Cc3nc(-c4cccc(Cl)c4)oc3C)C2)CC1` (stereo not given), the AC50 was 9.5 µM.

On to `Cc1ccc(NC(=O)CSc2ccc3c(c2)OCCO3)c(O)c1`, for which the concentration at half-maximal activity (AC50) is 0.343 µM.

Regarding `Cc1csc(NC(=O)Cc2nn(C)c(=O)c3ccccc23)n1`, the half-maximal activity concentration (AC50) was 6.82 µM.

For the compound `Cn1c(=O)[nH]c(=O)c2c1nc([N+](=O)[O-])n2Cc1ccccc1`, the AC50 was 1.9 µM.

On to `CCC(OC(=O)c1ccc(S(C)(=O)=O)c([N+](=O)[O-])c1)C(=O)NC1C2CC3CC(C2)CC1C3` (stereo not given), for which the AC50 was 1.66 µM.

Turning to `O=C(CSc1nnc(-c2ccc(Cl)cc2Cl)n1C1CCCCC1)N1CCCC1`, the AC50 is > 70 µM (inactive).

On to `CC(=O)C1(C)CCC2C3C=C(C)C4=CC(=O)CCC4(C)C3CCC21C` (stereo not given), for which the AC50 is 9.83 µM.

With `COC(=O)C12OCC34C(CC5C(C)=C(O)C(=O)CC5(C)C3C(O)C1O)OC(=O)C(OC(=O)/C=C(\C)C(C)C)C24` (stereo not given), the AC50 was less than 0.26 µM.

With `CC(C)OC(=O)c1ccc(NCc2cc(O)ccc2O)cc1Cl`, the AC50 is 2.15 µM.

Take `CCOC(=O)N1CCN(C(=O)c2ccc(Cn3c(=S)[nH]c4ccc(Br)cc4c3=O)cc2)CC1`: the AC50 was 1.25 µM.

Regarding `c1ccc(-c2cc3nc(NCC4CC4)nc(NCC4CCCCC4)c3s2)cc1`, the AC50 was 2.67 µM.

Consider `COc1ccc(C2/C=C\CN(C(=O)c3ccc(C)cc3)[C@H](Cc3ccccc3)C(=O)N2Cc2ccc(F)cc2)cc1` (stereo not given in full), for which the AC50 is 0.772 µM.

Take `Cc1nn(C)c(C(=O)NCc2ccc(Cl)cc2)c1Cl`: the AC50 was 1.74 µM.

As for `OC(CNCCC1C=Nc2ccccc21)Cn1c2ccc(Cl)cc2c2cc(Cl)ccc21` (stereo not given), the AC50 was 5.11 µM.

Turning to `CCCC(=O)N1CCN(c2ccc(NC(=O)c3cc4ccccc4o3)cc2Cl)CC1`, the AC50 is 4.1 µM.

Regarding `COc1ccc(OC)c(/C=C/C(=O)N2C(=O)c3cccc(N)c3C2=O)c1`, the AC50 was 3.25 µM.

In the case of `COc1cc(NC(=O)c2cc3c(Cl)nc4ccccc4c3s2)cc(OC)c1OC`, the AC50 is 24.4 µM.

Take `CCN(C(=O)C1CCN(c2nc(-c3ccc(OC)cc3)no2)CC1)c1ccc(OC)cc1`: the half-maximal activity concentration (AC50) was 3.17 µM.

On to `Cc1ccc(S(=O)(=O)CC2CSc3nc4ccccc4n32)cc1` (stereo not given), for which the concentration at half-maximal activity (AC50) is 0.347 µM.

`O=C(CN1C(=O)c2ccccc2S1(=O)=O)c1ccc2c(c1)OCCCO2`: the AC50 was 0.262 µM.

Turning to `Cc1cc(Nc2ccccc2)nc(NCc2ccccc2)n1`, the AC50 was 1.04 µM.

As for `Cc1nc2ccccc2c2oc(C(=O)N3CCN(C4CCCCC4)CC3)cc12`, the AC50 was 7.02 µM.

As for `CCCCCn1c(=O)c(C(=O)NC(C)c2ccccc2)c(O)c2ccccc21` (stereo not given), the AC50 is 11.7 µM.

Regarding `CCc1c(C)nc2ncnn2c1N1CCN(S(=O)(=O)c2ccc(OC)cc2)CC1`, the AC50 was 1.16 µM.

Take `Cn1nnnc1Sc1ncnc2scc(Br)c12`: the concentration at half-maximal activity (AC50) is 6.51 µM.

In the case of `CCOC(=O)c1cnc(-n2nc(C)cc2C)nc1NC1CCCC1`, the AC50 was 4.4 µM.

Consider `Cn1cc(CN(CCO)Cc2cccs2)c(-c2cccc(Cl)c2)n1`, for which the concentration at half-maximal activity (AC50) was 3.25 µM.

Usually AC50 stands for the concentration at which the activity in the assay is half-maximal.
